Results reported in patent publication US20140309275A1, “Sphingosine Analogs, Compositions, and Methods Related Thereto” (Emory University, priority 2011, published 2014).
Where two headings read alike, the source gives them in different places. Values belong to the compound of their own block, whether it stands above or below them.

Key:
Format in all cases: cell-based
[1] = tested on: P. falciparum chloroquine resistant (CQ-R) W2 strain; test: [3H]-labeled hypoxanthine uptake assay, P. falciparum W2; conditions: for IC50: Plasmodium falciparum; for IC50 W2: Table 1
Excerpt: (§1) The [^3H]-labeled hypoxanthine uptake method was utilized to assay the effectiveness of our sphingoid base analogs in vitro for their ability to inhibit the growth and replication of malaria parasites in RBCs. […] The simian malaria parasite P. knowlesi has also been recognized as a human pathogen of public health concern in South East Asia, and it can be cultured effectively in vitro. This species was therefore included to probe the potential of multi-species efficacy within this compound class.
(§2) Cryopreserved iRBCs were provided by Dr. John W. Barnwell from the Centers for Disease Control and Prevention and maintained in in vitro culture as described in Trager & Jensen, Science 1976, 193 (4254), 673-5.
(§3) Compounds in Table 1 were dissolved in 70% 200-proof pharmaceutical grade ethanol, and a working solution of 0.2 mg/mL was prepared using hypoxanthine- and gentamicin-free incomplete RPMI 1640 (Gibco). Compounds in Table 2 were dissolved in 200 proof pharmaceutical grade ethanol at a concentration of 50 μM and then conjugated to BSA (Sigma) as described.^5 A working solution of 0.2 mg/mL was prepared using hypoxanthine- and gentamicin-free incomplete RPMI 1640 (Gibco). Two compounds were tested per plate in triplicate starting at 0.2 mg/mL and diluted two-fold down to 0.019 μg/mL using hypoxanthine- and gentamicin-free RPMI.
(§4) Parasite inoculum was prepared by mixing parasitized blood, uninfected 0+RBCs (for P. falciparum strains) or rhesus RBCs (for P. knowlesi) and culture medium (deficient in hypoxanthine and gentamicin) to a final concentration of 1% parasitemia and 1% haematocrit. A negative control was prepared by diluting uninfected erythrocytes to 1% haematocrit in culture medium. [^3H]-labeled hypoxanthine was added at 24 h (for P. falciparum strains) or 12 h (P. knowlesi) and the culture was collected 48 h or 12 h later for P. falciparum or P. knowlesi, respectively. [^3H] uptake was measured by using a scintillation spectrophotometer (Wallac Oy 1450 MicroBeta reader).
(§5) Triplicate wells were used to calculate the IC50 for each compound using the software XLFit v5.2 using the sigmoidal model 601. Average and standard deviations were calculated using Microsoft Excel.

P. knowlesi H strain = test: [3H]-labeled hypoxanthine uptake assay, P. knowlesi; conditions: Table 1, compounds dissolved in 70% ethanol, not BSA-conjugated; for IC50: Plasmodium knowlesi
Excerpt: as §1, with “class. The data were generated with the known antimalarial drugs chloroquine and mefloquine as controls.” for “class.”
The H strain of P. knowlesi has been adapted to in vitro culture using Macaca mulatta (rhesus monkey) RBCs essentially as described in Kocken et al., Infect Immun 2002, 70 (2), 655-60 (the media was supplemented with 10% human AB serum).
Chloroquine (Sigma) and mefloquine (Sigma) were used as controls. Compounds in Table 1 were dissolved in 70% 200-proof pharmaceutical grade ethanol, and a working solution of 0.2 mg/mL was prepared using hypoxanthine- and gentamicin-free incomplete RPMI 1640 (Gibco). Compounds in Table 2 were dissolved in 200 proof pharmaceutical grade ethanol at a concentration of 50 μM and then conjugated to BSA (Sigma) as described.^5 A working solution of 0.2 mg/mL was prepared using hypoxanthine- and gentamicin-free incomplete RPMI 1640 (Gibco). Two compounds were tested per plate in triplicate starting at 0.2 mg/mL and diluted two-fold down to 0.019 μg/mL using hypoxanthine- and gentamicin-free RPMI.
as §4, §5

[2] = tested on: P. falciparum chloroquine susceptible (CQ-S) D6 strain; test: [3H]-labeled hypoxanthine uptake assay, P. falciparum D6; conditions: for IC50: Plasmodium falciparum; for IC50 D6: Table 1
Excerpt: as §1, §2, §3, §4, §5

[3] = tested on: LNCaP prostate cancer cells; test: WST-1 cytotoxicity assay, LNCaP; conditions: Homo sapiens, 24 h treatment
Experimental: (§6) Prostate cancer cells were treated with enigmol or analogue for 24 h, and cytotoxicity was assessed by WST-1 assay. cLogPs were calculated with QuikProp on Maestro.

[4] = tested on: PC-3 prostate cancer cells; test: WST-1 cytotoxicity assay, PC-3; conditions: 24 h treatment
Experimental: as §6

[5] = W2, Table 2, compounds conjugated to BSA, read-out: IC50 W2
[6] = W2, Table 1, compounds dissolved in 70% ethanol, not BSA-conjugated, read-out: IC50 W2
[7] = D6, Table 1, compounds dissolved in 70% ethanol, not BSA-conjugated, read-out: IC50 D6
[8] = D6, Table 2, compounds conjugated to BSA, read-out: IC50 D6
[9] = compounds dissolved in 70% ethanol, not BSA-conjugated

IC50 [1, 5]: 0.004 µM
IC50 (P. knowlesi H strain): 0.04 µM
SMILES: OC(c1cc(C(F)(F)F)nc2c(C(F)(F)F)cccc12)C1CCCCN1 (centres unmarked) [Mefloquine, reference compound]

IC50 [1, 6]: 4.42 ± 1.1 µM
IC50 [2, 7]: 7 ± 0.6 µM
IC50 (P. knowlesi H strain): 6.83 ± 0.09 µM
SMILES: CCCCCCCCCCCCC[C@H](O)C[C@H](O)[C@H](C)N(C)C [ESPD-0513, (2S,3S,5S)-2-(dimethylamino)octadecane-3,5-diol]

SMILES: CCCCCCCCCCCCC(F)(F)[C@@H](O)C[C@H](O)[C@H](C)N [ESPD-01407, (2S,3S,5S)-2-amino-6,6-difluorooctadecane-3,5-diol]
IC50 [3]: 10 µM
IC50 [4]: 9 µM

IC50 [1, 6]: 9.22 ± 1.6 µM
IC50 [2, 7]: 17.8 ± 1.1 µM
IC50 (P. knowlesi H strain): 20.3 ± 2 µM
SMILES: CCCCCCCCCCCCC[C@H](O)C[C@@H](O)[C@H](C)N [ESPD-0505, (2S,3R,5S)-2-Aminooctadecane-3,5-diol]

SMILES: CCCCCC/C=C\CCCCC[C@H](O)C[C@H](O)[C@H](C)N [ESPD-01192]
IC50 [3]: 19 µM
IC50 [4]: 25 µM

IC50 [1, 5]: 9.9 ± 7 µM
IC50 [2, 8]: 5.5 µM
SMILES: CCCCCCCCCCCCC[C@H](O)C[C@H](O)C1(N)CC1 (racemic) [ESPD-0860, (+/−)-syn1-(1-aminocyclopropyl)hexadecane-1,3-diol]

SMILES: CCCCCCCCCCCCC(F)(F)[C@@H](O)C[C@@H](O)[C@H](C)N [ESPD-01409, (2S,3R,5S)-2-amino-6,6-difluorooctadecane-3,5-diol]
IC50 [3]: 10 µM
IC50 [4]: 10 µM

SMILES: C[C@H](N)[C@@H](O)C[C@@H](O)CCCCC/C=C/CCCCCC(F)(F)F [ESPD-01186]
IC50 [3]: 14 µM
IC50 [4]: 27 µM

IC50 [1, 5]: 0.25 µM
IC50 ([1]; W2, text b107, BSA-conjugated, strain not stated (matches W2 of Table 2), read-out: IC50): 0.25 µM
IC50 [2, 8]: 0.7 ± 0.5 µM
SMILES: CCCCCCCCCCCCC[C@H](O)C[C@H](O)C(C)(C)NC (racemic) [ESPD-1158, (+/−)-syn-2-methyl-2-(methylamino)octadecane-3,5-diol]

SMILES: CCCCCCCCCCCCC(F)(F)[C@H](O)C[C@H](O)[C@H](C)N [ESPD-01406, (2S,3S,5R)-2-amino-6,6-difluorooctadecane-3,5-diol]
IC50 [3]: 10 µM
IC50 [4]: 9 µM

SMILES: C[C@H](N)[C@@H](O)C[C@@H](O)CCCCCCCCCCCCC(F)(F)F [ESPD-01183]
IC50 [3]: 13 µM
IC50 [4]: 13 µM

IC50 [1, 6]: 4.39 ± 1.5 µM
IC50 [2, 7]: 9.7 ± 1 µM
IC50 (P. knowlesi H strain): 6.25 ± 0.27 µM
SMILES: CCCCCCCCCCCCC[C@H](O)C[C@H](O)[C@@H]1CCCN1 [ESPD-0522, (1S,3S)-1-((S)-pyrrolidin-2-yl)hexadecane-1,3-diol]

SMILES: C[C@H](N)[C@@H](O)C[C@@H](O)CCCCCC#CCCCCCC(F)(F)F [ESPD-01184]
IC50 [3]: > 100 µM
IC50 [4]: 92 µM

IC50 [1, 6]: 13.1 ± 3.7 µM
IC50 W2 [1, 9]: no activity
IC50 [2, 7]: 11.1 ± 0.5 µM
IC50 D6 [2, 9]: no activity
IC50 (P. knowlesi H strain): > 58 µM
IC50 P. knowlesi (P. knowlesi H strain): no activity
SMILES: CCCCCCCCCCCCC[C@H](O)C[C@H](O)[C@H](C)NC(C)=O [ESPD-0506, N-((2S,3S,5S)-3,5-dihydroxyoctadecan-2-yl)acetamide]

IC50 [1, 5]: 4.67 ± 1 µM
IC50 [2, 8]: 5.2 ± 3 µM
SMILES: CCCCCCCCCCCCC[C@H](O)C[C@H](O)C(C)(C)N (racemic) [ESPD-0560, (+/−)-syn-2 amino-2-methyloctadecane-3,5-diol]
IC50 [3]: 23 µM
IC50 [4]: 10 µM

IC50 [1, 6]: 8.09 ± 0.24 µM
IC50 [2, 7]: 14.6 ± 0.64 µM
SMILES: CCCCCCCCCCCCC[C@H](O)C[C@@H](O)[C@H](C)NC [ESPD-0559, (2S,3R,5S)-2-(methylamino)octadecane-3,5-diol]

SMILES: CCCCCCCCCCCCC(F)(F)[C@H](O)C[C@@H](O)[C@H](C)N [ESPD-01408, (2S,3R,5R)-2-amino-6,6-difluorooctadecane-3,5-diol]
IC50 [3]: 10 µM
IC50 [4]: 9 µM

SMILES: CCN(CC)CCCC(C)Nc1ccnc2cc(Cl)ccc12 (centres unmarked) [Chloroquine, reference compound]
IC50 ([1]; W2, read-out: IC50 W2, Table 1, compounds dissolved in 70% ethanol, not BSA-conjugated): 0.18 µM
IC50 ([1]; W2, read-out: IC50 W2, Table 2, compounds conjugated to BSA): 0.093 µM
IC50 ([2]; D6, read-out: IC50 D6, Table 1, compounds dissolved in 70% ethanol, not BSA-conjugated): 0.02 µM
IC50 ([2]; D6, read-out: IC50 D6, Table 2, compounds conjugated to BSA): 0.011 µM

IC50 [1, 6]: > 37 µM
IC50 W2 [1, 9]: no activity
IC50 [2, 7]: > 37 µM
IC50 D6 [2, 9]: no activity
IC50 (P. knowlesi H strain): > 37 µM
IC50 P. knowlesi (P. knowlesi H strain): no activity
SMILES: CCCCCCCCCCCCCCCC(=O)N[C@@H](C)[C@@H](O)C[C@@H](O)CCCCCCCCCCCCC [ESPD-0514, N-((2S,3S,5S)-3,5-dihydroxyoctadecan-2-yl)palmitamide]

SMILES: CCCCCC/C=C/CCCCC[C@H](O)C[C@H](O)[C@H](C)N [ESPD-01187]
IC50 [3]: 19 µM
IC50 [4]: 33 µM

IC50 [1, 5]: 7.2 ± 4 µM
IC50 [2, 8]: 11.2 µM
SMILES: CCCCCCCCCCCCC[C@@H](O)C[C@H](O)C1(N)CC1 (racemic) [ESPD-0859, (+/−)-anti-1-(1-aminocyclopropyl)hexadecane-1,3-diol]

IC50 [1, 5]: 10 ± 2.7 µM
IC50 [2, 8]: 7.44 µM
SMILES: CCCCCCCCCCCCCC(O)C/C(=N\O)C(C)(C)N (centres unmarked) [ESPD-0858, (+/−,E)-2-amino-5-hydroxy-2-methyloctadecan-3-one oxime]
IC50 [3]: 24 µM
IC50 [4]: 24 µM

IC50 [1, 5]: 7.43 µM
IC50 [2, 8]: 4.1 ± 0.7 µM
SMILES: CCCCCCCCCCCCC[C@@H](O)C[C@H](O)C(C)(C)N (racemic) [ESPD-0561, (+/−)-anti-2 amino-2-methyloctadecane-3,5-diol]
IC50 [3]: 25 µM
IC50 [4]: 10 µM

IC50 [1, 6]: 8.17 ± 1.8 µM
IC50 [2, 7]: 12.7 ± 1.2 µM
IC50 (P. knowlesi H strain): 17.6 ± 1.8 µM
SMILES: CCCCCCCCCCCCC[C@@H](O)C[C@H](O)[C@H](C)N [ESPD-0503]

SMILES: CCCCCCC#CCCCCC[C@H](O)C[C@H](O)[C@H](C)N [ESPD-01185]
IC50 [3]: > 100 µM
IC50 [4]: > 100 µM
